Measured values: ChEMBL document CHEMBL4813944 (Eur J Med Chem, 2021)
Calls of active or inactive are those of the source. No cut-off for these calls is given here.

Tests used:
[1] = Cytotoxicity against human SH-SY5Y cells assessed as cell viability at 0.1 uM measured after 24 hrs by calcein-AM staining based fluorescence analysis; details: read-out: Activity
[2] = Cytotoxicity against human SH-SY5Y cells assessed as cell viability at 1 uM measured after 24 hrs by calcein-AM staining based fluorescence analysis; details: read-out: Activity
[3] = Cytotoxicity against human SH-SY5Y cells assessed as cell viability at 10 uM measured after 24 hrs by calcein-AM staining based fluorescence analysis; details: read-out: Activity
SH-SY5Y [4] = assay: Neuroprotective activity against salsolinol-induced neurotoxicity in human SH-SY5Y cells assessed as cell viability at 1 uM measured after 24 hrs by calcein-AM staining based fluorescence analysis (reference value: 70.49 +/-0.51%); type: functional; details: read-out: Activity
SH-SY5Y [5] = assay: Neuroprotective activity against salsolinol-induced neurotoxicity in human SH-SY5Y cells assessed as cell viability at 0.1 uM measured after 24 hrs by calcein-AM staining based fluorescence analysis (reference value: 70.49 +/-0.51%); type: functional; details: read-out: Activity
SH-SY5Y [6] = assay: Neuroprotective activity against salsolinol-induced neurotoxicity in human SH-SY5Y cells assessed as cell death at 0.1 uM measured after 24 hrs by PI staining based analysis (reference value: 100%); type: functional
SH-SY5Y [7] = assay: Neuroprotective activity against salsolinol-induced neurotoxicity in human SH-SY5Y cells assessed as cell death at 1 uM measured after 24 hrs by PI staining based analysis (reference value: 100%); type: functional
SH-SY5Y [8] = assay: Inhibition of Salsolinol-induced oxidative stress in human SH-SY5Y cells assessed as superoxide radical formation at 1 uM measured after 24 hrs by DHE staining based fluorescence spectrophotometry (reference value: 100%); type: functional; set-up: scale not given: the % may be the effect or the level left
SH-SY5Y [9] = assay: Inhibition of salsolinol-induced apoptosis in human SH-SY5Y cells assessed as caspase 3/7 activity at 1 uM incubated for 24 hrs using Ac-DEVD-AMC as substrate by fluorescence analysis (reference value: 100%); type: functional; set-up: scale not given: the % may be the effect or the level left
SH-SY5Y [10] = assay: Inhibition of salsolinol-induced apoptosis in human SH-SY5Y cells assessed as caspase 3/7 activity at 0.1 uM incubated for 24 hrs using Ac-DEVD-AMC as substrate by fluorescence analysis (reference value: 100%); type: functional; set-up: scale not given: the % may be the effect or the level left
SH-SY5Y [11] = assay: Inhibition of salsolinol-induced mitochondrial depolarization in human SH-SY5Y cells assessed as mitochondrial membrane potential at 10 uM measured after 24 hrs by JC-1 staining based flow cytometry (reference value: 45.3 +/-2.09%); type: functional
SH-SY5Y [12] = assay: Inhibition of salsolinol-induced mitochondrial depolarization in human SH-SY5Y cells assessed as recovery of mitochondrial membrane potential at 0.1 uM measured after 24 hrs by JC-1 staining based flow cytometry; type: functional, cell-based
[13] = Inhibition of salsolinol-induced mPTP opening in human SH-SY5Y cells assessed as fold change in fluorescence intensity at 1 uM measured after 24 hrs by calcein AM/CoCl2 based fluorescence microscopic analysis (reference value: 0.49 +/-0.02); type: functional
SH-SY5Y [14] = assay: Inhibition of salsolinol-induced apoptosis in human SH-SY5Y cells assessed as appearance of necrotic cells at 1 uM measured after 24 hrs by AO/PIstaining based fluorescence microscopy; type: functional, cell-based
SH-SY5Y [15] = assay: Neuroprotective activity against glutamate-induced neurotoxicity in human SH-SY5Y cells assessed as cell death at 1 uM measured after 24 hrs by PI staining based assay (reference value: 100%); type: functional
SH-SY5Y [16] = assay: Inhibition of glutamate-induced oxidative stress in human SH-SY5Y cells assessed as superoxide radical formation at 1 uM measured after 4 hrs by DHE staining based fluorescence spectrophotometry (reference value: 100%); type: functional; set-up: scale not given: the % may be the effect or the level left
SH-SY5Y [17] = assay: Inhibition of glutamate-induced apoptosis in human SH-SY5Y cells assessed as reduction in caspase 3/7 activity at 0.1 to 1 uM incubated for 1 hr using Ac-DEVD-AMC as substrate by fluorescence analysis; type: functional; details: dose 0.1-1 µM
SH-SY5Y [18] = assay: Inhibition of glutamate-induced mitochondrial depolarization in human SH-SY5Y cells assessed as recovery of mitochondrial membrane potential at 0.1 to 1 uM incubated for 1 hr by JC10 dye based fluorescence analysis; type: functional, cell-based; details: dose 0.1-1 µM
SH-SY5Y [19] = assay: Inhibition of Salsolinol-induced oxidative stress in human SH-SY5Y cells assessed as superoxide radical formation at 0.1 uM measured after 24 hrs by DHE staining based fluorescence spectrophotometry (reference value: 100%); type: functional; set-up: scale not given: the % may be the effect or the level left
SH-SY5Y [20] = assay: Inhibition of Salsolinol-induced oxidative stress in human SH-SY5Y cells assessed as reduction in superoxide radical formation at 1 uM measured after 24 hrs by DHE staining based fluorescence microscopy; type: functional, cell-based
SH-SY5Y [21] = assay: Inhibition of glutamate-induced oxidative stress in human SH-SY5Y cells assessed as superoxide radical formation at 0.1 uM measured after 4 hrs by DHE staining based fluorescence spectrophotometry (reference value: 100%); type: functional; set-up: scale not given: the % may be the effect or the level left
SH-SY5Y [22] = assay: Inhibition of glutamate-induced oxidative stress in human SH-SY5Y cells assessed as reduction in superoxide radical formation at 1 uM measured after 4 hrs by DHE staining based fluorescence microscopy; type: functional, cell-based
SH-SY5Y [23] = assay: Inhibition of salsolinol-induced apoptosis in human SH-SY5Y cells assessed as caspase 3/7 activity at 0.5 uM incubated for 24 hrs using Ac-DEVD-AMC as substrate by fluorescence analysis (reference value: 100%); type: functional; set-up: scale not given: the % may be the effect or the level left
SH-SY5Y [24] = assay: Inhibition of salsolinol-induced apoptosis in human SH-SY5Y cells assessed as caspase 3/7 activity at 0.05 uM incubated for 24 hrs using Ac-DEVD-AMC as substrate by fluorescence analysis (reference value: 100%); type: functional; set-up: scale not given: the % may be the effect or the level left
SH-SY5Y [25] = assay: Inhibition of glutamate-induced apoptosis in human SH-SY5Y cells assessed as caspase 3/7 activity at 0.05 uM incubated for 1 hr using Ac-DEVD-AMC as substrate by fluorescence analysis (reference value: 100%); type: functional; set-up: scale not given: the % may be the effect or the level left
SH-SY5Y [26] = assay: Inhibition of glutamate-induced apoptosis in human SH-SY5Y cells assessed as caspase 3/7 activity at 0.5 uM incubated for 1 hr using Ac-DEVD-AMC as substrate by fluorescence analysis (reference value: 100%); type: functional; set-up: scale not given: the % may be the effect or the level left

## C=C(C(=O)OCc1c[nH]nn1)[C@@H]1CC[C@]2(COC(C)=O)CC[C@]3(C)[C@H](CC[C@@H]4[C@@]5(C)CC[C@H](OC(C)=O)C(C)(C)[C@@H]5CC[C@]43C)[C@@H]12
[1]
  viability at 24 h, 0.1 µM: 97.4%
[2]
  viability at 24 h, 1 µM: 119%
[3]
  viability at 24 h, 10 µM: 30.5%
SH-SY5Y [4]
  viability at 1 µM: 97.9%
SH-SY5Y [5]
  viability at 0.1 µM: 81.4%
SH-SY5Y [6]
  Activity: 62.3%
SH-SY5Y [7]
  Activity: 59.3%
SH-SY5Y [8]
  Activity: 81%
SH-SY5Y [9]
  Activity: 24.3%
SH-SY5Y [10]
  Activity: 42.2%
SH-SY5Y [11]
  Activity: inactive
SH-SY5Y [12]
  Activity: Active
[13]
  fold change (FC): 1.14
SH-SY5Y [14]
  Activity: Active
SH-SY5Y [15]
  Activity: 85%
SH-SY5Y [16]
  Activity: 72.2%
SH-SY5Y [17]
  inhibition (INH): 6%
SH-SY5Y [18]
  Activity: inactive
SH-SY5Y [19]
  Activity: 83.7%
SH-SY5Y [20]
  inhibition: Active
SH-SY5Y [21]
  Activity: 75.7%
SH-SY5Y [22]
  inhibition: Active

## CC(=O)N[C@@H](CC(=O)O)C(=O)N[C@@H](CCC(=O)O)C(=O)N[C@H](C(=O)N[C@@H](CC(=O)O)C(=O)O)C(C)C
SH-SY5Y [23]
  Activity: 30.8%
SH-SY5Y [24]
  Activity: 36.9%
SH-SY5Y [25]
  Activity: 27.8%
SH-SY5Y [26]
  Activity: 13.7%
